Legend:
Swiss albino mice = test: Triglyceride lowering activity in Swiss albino mice; type: in vivo; conditions: 3 mg/kg/day oral for 6 days
Description: Male Swiss albino mice (SAM) were obtained from NIN and housed in DRF animal house. All these animals were maintained under 12 hour light and dark cycle at 25±1° C. Animals were given standard laboratory chow SIN, Hyderabad, India) and water, ad libitun. SAM of 20-25 g body weight range and Guinea pigs of 500-700 g body weight range were used (Oliver, P., Plancke, M. O., Marzin, D., Clavey, V., Sauzieres, J and Fruchart, J. C. Effects of fenofibrate, gemfibrozil and nicotinic acid on plasma lipoprotein levels in normal and hyperlipidemic mice. Atherosclerosis. 1988. 70:107-114).
The test compounds were administered orally to Swiss albino mice at 0.3 to 30 mg/kg/day dose for 6 days. Control mice were treated with vehicle (0.25% Carboxymethylcellulose; dose 10 ml/kg). The test compounds were administered orally to Guinea pigs at 0.3 to 30 mg/kg/day dose for 6 days. Control animals were treated with vehicle (0.25% Carboxymethylcellulose; dose 5 ml/kg).
The blood samples were collected in fed state 1 hour after drug administration on 0 and 6 day of treatment. The blood was collected from the retro-orbital sinus through heparinised capillary in EDTA containing tubes. After centrifugation, plasma sample was separated for triglyceride and total cholesterol (Wieland, O. Methods of Enzymatic analysis. Bergermeyer, H. O., Ed., 1963. 211-214; Trinder, P. Ann. Clin. Biochem. 1969. 6: 24-27). Measurement of plasma triglyceride, total cholesterol and HDL were done using commercial kits (Dr. Reddy's Diagnostic Division, Hyderabad, India).
(§1) 1. Percent reduction in Blood sugar/triglycerides/total cholesterol were calculated according to the formula: [formula]

hPPARα = molecular target: T1, hPPARα (Homo sapiens, UniProt Q07869); test: Determination of hPPARα activity (GAL4 luciferase reporter transactivation in HEK-293 cells); type: cell-based; conditions: compound at 50 μM, HEK-293 cells transfected with GAL4-hPPARα LBD
T1 construct: expressed in transfected cells; host or cells: HEK-293
T1 sequence (Q07869 239-466 limits assumed): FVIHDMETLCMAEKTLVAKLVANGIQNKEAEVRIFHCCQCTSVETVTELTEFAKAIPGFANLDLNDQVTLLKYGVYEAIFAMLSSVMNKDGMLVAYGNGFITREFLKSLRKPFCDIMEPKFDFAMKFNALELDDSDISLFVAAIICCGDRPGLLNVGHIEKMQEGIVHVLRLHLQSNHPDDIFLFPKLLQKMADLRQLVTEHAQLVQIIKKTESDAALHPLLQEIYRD
Description: Ligand binding domain of hPPARα was fused to DNA binding domain of Yeast transcription factor GAL4 in eucaryotic expression vector. Using superfect (Qiagen, Germany) as transfecting reagent HEK-293 cells were transfected with this plasmid and a reporter plasmid harboring the luciferase gene driven by a GAL4 specific promoter. Compound was added at different concentrations after 42 hrs of transfection and incubated overnight. Luciferase activity as a function of compound binding/activation capacity of PPARα was measured using Packard Luclite kit (Packard, USA) in Top Count (Ivan Sadowski, Brendan Bell, Peter Broag and Melvyn Hollis. Gene. 1992. 118: 137-141; Superfect Transfection Reagent Handbook. February 1997. Qiagen, Germany).

hPPARγ1 = molecular target: T2, hPPARγ1 (Homo sapiens, UniProt P37231); test: Determination of hPPARγ activity (GAL4 luciferase reporter transactivation in HEK-293 cells); type: cell-based; conditions: compound at 1 μM, HEK-293 cells transfected with GAL4-hPPARγ1 LBD
T2 construct: expressed in transfected cells; host or cells: HEK-293
T2 sequence (P37231 238-503 limits assumed): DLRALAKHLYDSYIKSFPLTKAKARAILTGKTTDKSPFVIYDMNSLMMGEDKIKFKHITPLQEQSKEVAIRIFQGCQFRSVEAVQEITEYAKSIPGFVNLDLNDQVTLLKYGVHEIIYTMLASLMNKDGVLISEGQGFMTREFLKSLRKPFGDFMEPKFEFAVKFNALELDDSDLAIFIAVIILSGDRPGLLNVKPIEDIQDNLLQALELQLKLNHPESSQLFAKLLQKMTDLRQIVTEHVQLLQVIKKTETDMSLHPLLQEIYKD
Description: Ligand binding domain of hPPARγ1 was fused to DNA binding domain of Yeast transcription factor GAL4 in eucaryotic expression vector. Using lipofectamine (Gibco BRL, USA) as transfecting reagent HEK-293 cells were transfected with this plasmid and a reporter plasmid harboring the luciferase gene driven by a GAL4 specific promoter. Compound was added at 1 μM concentration after 48 hrs of transfection and incubated overnight. Luciferase activity as a function of drug binding/activation capacity of PPARγ1 was measured using Packard Luclite kit (Packard, USA) in Packard Top Count (Ivan Sadowski, Brendan Bell, Peter Broag and Melvyn Hollis. Gene. 1992. 118: 137-141; Guide to Eukaryotic Transfections with Cationic Lipid Reagents. Life Technologies, GIBCO BRL, USA).

[1] = test system: hypercholesterolemic male Sprague Dawley rats; test: Cholesterol lowering activity in hypercholesterolemic male Sprague Dawley rats; type: in vivo; conditions: 3 mg/kg/day oral for 3 days
Description: Male Sprague Dawley rats (NIN stock) were bred in DRF animal house. Animals were maintained under 12 hour light and dark cycle at 25±1° C. Rats of 180-200 gram body weight range were used for the experiment. Animals were made hypercholesterolemic by feeding 2% cholesterol and 1% sodium cholate mixed with standard laboratory chow [National Institute of Nutrition (NMN), Hyderabad, India] for 6 days. Throughout the experimental period the animals were maintained on the same diet (Petit, D., Bonnefis, M. T., Rey, C and Infante, R. Effects of ciprofibrate on liver lipids and lipoprotein synthesis in normo- and hyperlipidemic rats. Atherosclerosis. 1988. 74: 215-225).
The test compounds were administered orally at a dose 0.1 to 30 mg/kg/day for 3 days. Control group was treated with vehicle alone (0.25% Carboxymethylcellulose; dose 10 ml/kg).
The blood samples were collected in fed state 1 hour after drug administration on 0 and 3 day of compound treatment. The blood was collected from the retro-orbital sinus through heparinised capillary in EDTA containing tubes. After centrifugation, plasma sample was separated for total cholesterol, HDL and triglyceride estimations. Measurement of plasma triglyceride, total cholesterol and HDL were done using commercial kits (Dr. Reddy's Laboratory, Diagnostic Division, India). LDL and VLDL cholesterol were calculated from the data obtained for total cholesterol, HDL and triglyceride. The reduction of various parameters examined are calculated according to the formula given below.
as §1
2. LDL and VLDL cholesterol levels were calculated according to the formula: [formula]
VLDL cholesterol in mg/dl=[Total cholesterol−HDL cholesterol−LDL cholesterol] mg/dl.

C57BL/KsJ-db/db mice = test: Blood glucose and triglyceride lowering activity in db/db mice; type: in vivo; conditions: 3 mg/kg oral gavage daily for 6 days, plasma 1 h after dose on day 6
Excerpt: Mutation in colonies of laboratory animals and different sensitivities to dietary regimens have made the development of animal models with non-insulin dependent diabetes and hyperlipidemia associated with obesity and insulin resistance possible. Genetic models such as db/db and ob/ob (Diabetes, (1982) 31(1): 1-6) mice and zucker fa/fa rats have been developed by the various laboratories for understanding the pathophysiology of disease and testing the efficacy of new antidiabetic compounds (Diabetes, (1983) 32: 830-838; Annu. Rep. Sankyo Res. Lab. (1994). 46: 1-57). The homozygous animals, C57 BL/KsJ-db/db mice developed by Jackson Laboratory, US, are obese, hyperglycemic, hyperinsulinemic and insulin resistant (J. Clin. Invest., (1990) 85: 962-967), whereas heterozygous are lean and normoglycemic. In db/db model, mouse progressively develops insulinopenia with age, a feature commonly observed in late stages of human type II diabetes when blood sugar levels are insufficiently controlled. The state of pancreas and its course vary according to the models. Since this model resembles that of type II diabetes mellitus, the compounds of the present invention were tested for blood sugar and triglycerides lowering activities.
Male C57BL/KsJ-db/db mice of 8 to 14 weeks age, having body weight range of 35 to 60 grams, bred at Dr. Reddy's Research Foundation (DRF) animal house, were used in the experiment. The mice were provided with standard feed (National Institute of Nutrition (NIN), Hyderabad, India) and acidified water, ad libitum. The animals having more than 350 mg/dl blood sugar were used for testing. The number of animals in each group was 4.
Test compounds were suspended on 0.25% carboxymethyl cellulose and administered to test group at a dose of 0.001 mg to 30 mg/kg through oral gavage daily for 6 days. The control group received vehicle (dose 10 ml/kg). On 6th day the blood samples were collected one hour after administration of test compounds/vehicle for assessing the biological activity.
The random blood sugar and triglyceride levels were measured by collecting blood (100 μl) through orbital sinus, using heparinised capillary in tubes containing EDTA which was centrifuged to obtain plasma. The plasma glucose and triglyceride levels were measured spectrometrically, by glucose oxidase and glycerol-3-PO4 oxidase/peroxidase enzyme (Dr. Reddy's Lab. Diagnostic Division Kits, Hyderabad, India) methods respectively.
The blood sugar and triglycerides lowering activities of the test compound was calculated according to the formula given below.
as §1

Structure (SMILES) | Triglyceride (%)↓ (Swiss albino mice) [%] | PPARα activity (hPPARα) | PPARγ activity (hPPARγ1) | Reduction in Blood Glucose Level (%) (C57BL/KsJ-db/db mice) | Triglyceride Lowering (%) (C57BL/KsJ-db/db mice) | further results
CCCc1nn(C)c2c(=O)n(CCOc3ccc(CC(OCC)C(=O)OCC)cc3)c(CCC)nc12 (stereo not shown) [Example 13, Ethyl 3-[4-[2-(3,5-Dipropyl-1-methyl-7-oxo-6,7-dihydro-1H-pyrazolo[4,3-d]pyrimidin-6-yl)ethoxy]phenyl]-2-ethoxypropanoate] | 25 |  |  |  |  | 
CCCc1nn(C)c2c(=O)n(CCOc3ccc(CC(OCC)C(=O)OCC)cc3)c(CC)nc12 (stereo not shown) [Example 1] | 45 | 5.00 | 11.0 |  |  | 
CCCc1nn(C)c2c(=O)n(CCOc3ccc(CC(OCC)C(=O)O)cc3)c(CC)nc12 (stereo not shown) [Example 2] |  |  |  |  |  | HDL ↓ [1]: 164; Total Cholesterol (%)↓ [1]: 60%; Triglyceride (%)↓ [1]: 70%; LDL (%)↓ ([1]; LDL calculated from total cholesterol, HDL and triglyceride): 72%; VLDL (%)↓ ([1]; VLDL calculated from total cholesterol, HDL and LDL): 71%
CCCc1nn(C)c2c(=O)n(CCOc3ccc(CC(Oc4ccccc4)C(=O)O)cc3)c(CC)nc12 (stereo not shown) [Example 10, 3-[4-[2-(5-Ethyl-1-methyl-7-oxo-3-propyl-6,7-dihydro-1H-pyrazolo[4,3-d]pyrimidin-6-yl)ethoxy]phenyl]-2-phenoxypropanoic Acid] |  |  |  | 33 | 35 | 
CCCc1nn(C)c2c(=O)n(CCOc3ccc(CC(OCC)C(=O)OCC)cc3)c(C)nc12 (stereo not shown) [Example 3, Ethyl 3-[4-[2-(1,5-Dimethyl-7-oxo-3-propyl-6,7-dihydro-1H-pyrazolo[4,3-d]pyrimidin-6-yl)ethoxy]phenyl]-2-ethoxypropanoate] | 61 | 6.9 | 19.0 | 58 | 23 | 
CCCc1nn(C)c2c(=O)n(CCOc3ccc(C[C@@H](OCC)C(=O)N[C@H](CO)c4ccccc4)cc3)c(CC)nc12 [Example 18A, [2R, N(1S)]-2-Ethoxy-3-[4-[2-(5-ethyl-1-methyl-7-oxo-3-propyl-6,7-dihydro-1H-pyrazolo[4,3-d]pyrimidin-6-y]ethoxy]phenyl]-N-(2-hydroxy-1-phenylethyl) Propanamide] |  |  |  |  |  | melting point: 138 to 139 °C
CCCc1nn(C)c2c(=O)n(CCOc3ccc(CC(OCC)C(=O)O)cc3)c(C)nc12 (stereo not shown) [Example 4, 3-[4-[2-(1,5-Dimethyl-7-oxo-3-propyl-6,7-dihydro-1H-pyrazolo[4,3-d]pyrimidin-6-yl)ethoxy]phenyl]-2-ethoxypropanoic Acid] | 66 | 8.32 | 14.6 | 42 | 17 | 
